Source: the NIST ThermoML archive (doi:10.1016/j.jct.2011.10.023)

Details: Liquid, Vibrating tube method

CCCCCCCO [heptan-1-ol]
mass density [kg/m3]
Details | 278.15 K | 288.15 K | 298.15 K | 308.15 K | 318.15 K | 328.15 K | 338.15 K | 348.15 K | 358.15 K
100 kPa | 832.4 | 825.5 | 818.5 | 811.4 | 804.3 | 797.1 | 789.7 | 782.1 | 774.2
1000 kPa | 833 | 826.1 | 819.1 | 812.1 | 805 | 797.8 | 790.4 | 782.9 | 775.1
5000 kPa | 835.4 | 828.6 | 821.8 | 814.7 | 807.9 | 800.9 | 793.7 | 786.3 | 778.7
10000 kPa | 838.3 | 831.7 | 824.9 | 818.3 | 811.4 | 804.6 | 797.5 | 790.4 | 783
15000 kPa | 841.2 | 834.7 | 828.1 | 821.5 | 814.8 | 808.1 | 801.2 | 794.2 | 787.1
20000 kPa | 843.9 | 837.6 | 831.1 | 824.6 | 818.1 | 811.5 | 804.7 | 797.9 | 790.9
25000 kPa | 846.4 | 840.4 | 833.9 | 827.6 | 821.2 | 814.7 | 808.1 | 801.4 | 794.6
30000 kPa | 849.2 | 843.1 | 836.7 | 830.5 | 824.2 | 817.8 | 811.4 | 804.8 | 798.2
35000 kPa | 851.7 | 845.7 | 839.5 | 833.3 | 827.1 | 820.8 | 814.6 | 808.1 | 801.5
40000 kPa | 854.2 | 848.2 | 842.1 | 836 | 829.9 | 823.8 | 817.5 | 811.3 | 804.9
45000 kPa | 856.6 | 850.7 | 844.7 | 838.7 | 832.7 | 826.6 | 820.6 | 814.3 | 808.1
50000 kPa | 859 | 853.1 | 847.2 | 841.3 | 835.4 | 829.4 | 823.4 | 817.3 | 811.1
55000 kPa | 861.3 | 855.5 | 849.7 | 843.8 | 838 | 832.1 | 826.2 | 820.2 | 814.1
60000 kPa | 863.4 | 857.8 | 852.1 | 846.1 | 840.4 | 834.5 | 828.7 | 822.8 | 816.9

CCO [ethanol]
mass density [kg/m3]
Details | 278.15 K | 288.15 K | 298.15 K | 308.15 K | 318.15 K | 328.15 K | 338.15 K | 348.15 K | 358.15 K
100 kPa | 801.9 | 793.4 | 784.8 | 776.1 | 767.4 | 758.4 | 749.1 | 739.5 | 729.5
1000 kPa | 802.7 | 794.2 | 785.6 | 777 | 768.3 | 759.4 | 750.2 | 740.7 | 730.7
5000 kPa | 805.9 | 797.6 | 789.3 | 780.9 | 772.4 | 763.7 | 754.8 | 745.6 | 736
10000 kPa | 809.9 | 801.8 | 793.6 | 785.4 | 777.2 | 768.8 | 760.1 | 751.3 | 742.1
15000 kPa | 813.6 | 805.8 | 797.7 | 789.7 | 781.7 | 773.6 | 765.2 | 756.6 | 747.7
20000 kPa | 817.2 | 809.5 | 801.7 | 793.9 | 786 | 778.1 | 769.9 | 761.6 | 753
25000 kPa | 820.6 | 813.1 | 805.3 | 797.8 | 790.1 | 782.4 | 774.4 | 766.4 | 758
30000 kPa | 824 | 816.6 | 809 | 801.5 | 794 | 786.5 | 778.7 | 770.8 | 762.8
35000 kPa | 827.2 | 819.9 | 812.5 | 805.2 | 797.8 | 790.4 | 782.8 | 775.1 | 767.2
40000 kPa | 830.3 | 823.1 | 815.9 | 808.7 | 801.4 | 794.2 | 786.7 | 779.2 | 771.5
45000 kPa | 833.3 | 826.3 | 819.2 | 812 | 804.9 | 797.8 | 790.5 | 783.1 | 775.6
50000 kPa | 836.3 | 829.3 | 822.3 | 815.3 | 808.3 | 801.3 | 794.1 | 786.9 | 779.5
55000 kPa | 839.1 | 832.3 | 825.4 | 818.5 | 811.6 | 804.7 | 797.7 | 790.5 | 783.3
60000 kPa | 841.8 | 835 | 828.1 | 821.4 | 814.6 | 807.8 | 800.8 | 793.8 | 786.7
